The source of these data is paper PMC9935901, “B-lymphoid tyrosine kinase-mediated FAM83A phosphorylation elevates pancreatic tumorigenesis through interacting with β-catenin” (Signal Transduction and Targeted Therapy, 2023).

Experiment [1] relates to PANC-1 xenograft tumor (FAM83A re-expression). Briefly: Mouse xenograft of FAM83A re-expressing PANC-1 cells, Wnt inhibitor. Format: in vivo, nude mice (human PANC-1 cells). Particulars: 20 mg/kg intravenous (Fig. 6 legend) or 50 mg/kg intraperitoneal twice a week (methods); n = 6 or 5.
Description: The Wnt inhibitor XAV939 (20 mg/kg) was intravenously injected into the caudal vein of the nude mice one week later after xenograft formation. c Growth curve showing the changes in the tumor volume in mice in different groups from the injection (n = 6 or 5). d Weight of the excised tumors in each group (n = 6 or 5). e, f Representative images of lung and colon metastasis of the nude mice model that tail intravenous injected with PANC-1 cells stably expressed Flag-tagged wild-type FA[MUT], [MUT], or [MUT] mutants were shown. g The number of lung or colon metastasis was quantified per field (n = 5). h, i Representative images and quantification of the soft agarose and plate colony formation assays of PANC-1 cells stably expressed Flag-tagged wild-type FA[MUT], [MUT], or [MUT] mutants (n = 3). j, k Representative images and quantification of the transwell assays without matrigel of PANC-1 cells stably expressed Flag-tagged wild-type FA[MUT], [MUT] or [MUT] mutants (n = 3). l Representative H&E staining images and immunohistochemical images of Ki67, C-myc, and AXIN2 expression in excised tumors tissues. *P < 0.05; **P < 0.01; ***P < 0.001. […] The length and width of the mouse xenograft tumors were measured every 5 days with calipers, and tumor volume (V) was calculated with the following formula: V = [(length × width × width)/2]. […]
Experiment [2] concerns BLK (FAM83A tyrosine phosphorylation). Briefly: BLK-mediated FAM83A tyrosine phosphorylation in HEK293T cells. Particulars: 10 μM; HEK293T with or without BLK overexpression; n = 3. Format: cell-based. The source says:
Cell lysates were used for IP and western blotting with the indicated antibodies (n = 3). f Level of total tyrosine phosphorylation of Flag-tagged FAM83A and its Y138A mutant in HEK293T cells after BLK kinase knockdown using two specific small interfering RNAs (siBLK#1 and siBLK#2). Cell lysates were used for IP and western blotting with the indicated antibodies (n = 3). g, h Level of total tyrosine phosphorylation of Flag-tagged FAM83A and its Y138A mutant in HEK293T cells with or without BLK kinase overexpression and saracatinib (BLK inhibitor, 10 μM)/PP2 (LCK or FYN inhibitor, 10 μM) treatment. Cell lysates were used for IP and western blotting with the indicated antibodies (n = 3). i The BLK kinases was obtained from the immunoprecipitate of HEK293T cell lysates that transfected with either HA-tagged BLK wild-type, BLK kinase-dead mutant (Y389A) or BLK constitutive activated mutant with the deletion of the C-terminal auto-inhibitory domain (BLK ΔC) using HA tag antibody. Then the BLK kinases were incubated with the in vitro purified GST-tagged FAM83A protein at 30 °C for 30 min with or without BLK inhibitor saracatinib, and then the reaction products were subjected to western blotting assay (n = 3)
Immunoprecipitation and Western blotting were performed as described previously.[35] GAPDH protein levels were used as loading controls. […]

The subject of experiment [3] is pancreatic cancer stem cells (PaCSCs), primary PDAC cultures. Particulars: primary PDAC cultures from patient-derived xenografts; ref not given; cited from earlier work. The source says: Intricate communication between pancreatic cancer cells and their surrounding environment is driven by a dynamic signaling network of cellular and matrix remodeling enzymes, cytokines, chemokines, and growth factors, which collectively promote tumor growth and treatment resistance. The non-receptor SRC kinase family signaling network is increasingly recognized as a key player in pancreatic tumorigenesis.[38],[39] Treatment of primary PDAC cultures established from patient-derived xenografts with dasatinib or PP2 reduced the clonogenic, self-renewal, and tumor-initiating capacity of pancreatic ...

`Oc1nc(-c2ccc(C(F)(F)F)cc2)nc2c1CSCC2` [XAV939]: the xenograft tumor size result in experiment [1] was “inhibits the xenograft tumor size mediated by FAM83A re-expression”.
Regarding `CC(C)(C)n1nc(-c2ccc(Cl)cc2)c2c(N)ncnc21` [PP2], the FAM83A tyrosine phosphorylation result in experiment [2] was “not LYN kinase inhibitor PP2”. Further, the “clonogenic, self-renewal, and tumor-initiating capacity of PaCSCs” value in experiment [3] is “reduced the clonogenic, self-renewal, and tumor-initiating capacity of pancreatic cancer stem cells”.
Regarding `CN1CCN(CCOc2cc(OC3CCOCC3)c3c(Nc4c(Cl)ccc5c4OCO5)ncnc3c2)CC1` [saracatinib], in experiment [2], the FAM83A tyrosine phosphorylation entry is “could be reduced by the BLK kinase inhibitor saracatinib”.
As for `Cc1nc(Nc2ncc(C(=O)Nc3c(C)cccc3Cl)s2)cc(N2CCN(CCO)CC2)n1` [dasatinib], in experiment [3], the “clonogenic, self-renewal, and tumor-initiating capacity of PaCSCs” value is “reduced the clonogenic, self-renewal, and tumor-initiating capacity of pancreatic cancer stem cells”.
